US5698670A, “Aureobasidins” (priority 1993, dated 1997)
≈ marks a conversion by molar mass, not a printed value. Read-outs that look alike come from different tables or passages of the source. Numbered stars: 1 amine (or outer) side, 2 acyl side, 3 side chain; on linkers, the order of the positions; unused ones are H or OH. Square brackets hold non-standard residues; d marks the D form. Peptide text beside a SMILES is read from it. * marks the point of attachment. X1 = CC[C@@H](C)[C@@H](O[*:1])C(=O)[*:2]; NMeVal(β-OH) = CN[C@H](C(=O)O)C(C)(C)O; NMeF = CN[C@@H](Cc1ccccc1)C(=O)O; aIle = CC[C@@H](C)[C@H](N)C(=O)O; Cyclohexylmethyl = C1CCC(C*)CC1; Cha = N[C@@H](CC1CCCCC1)C(=O)O; dNMeV = CN[C@@H](C(=O)O)C(C)C; NMeV = CN[C@H](C(=O)O)C(C)C; dNMeS = CN[C@H](CO)C(=O)O; dNMeA = CN[C@H](C)C(=O)O; Bn = c1ccc(C*)cc1

Assays:
[1] = tested on: Candida albicans TIMM0136; assay: MIC by agarose plate dilution method; format: cell-based; settings: saburo-dextrose agarose culture, 30° C., 2 days
Method: (§1) MIC was measured by agarose plate dilution method (cultivated at 30° C. for 2 days) using saburo-dextrose agarose culture (glucose 2 W/V %, polipeptone 1 W/V %, agarose 1.5 W/V %). Control was Aureobasidin A (AbA).

[2] = tested on: Candida albicans TIMM0171; assay: MIC by agarose plate dilution method; format: cell-based; settings: saburo-dextrose agarose culture, 30° C., 2 days
Method: as §1

[3] = tested on: Candida glabrata TIMM1062; assay: MIC by agarose plate dilution method; format: cell-based; settings: saburo-dextrose agarose culture, 30° C., 2 days
Method: as §1

[4] = tested on: Candida kefyr TIMM0301; assay: MIC by agarose plate dilution method; format: cell-based; settings: saburo-dextrose agarose culture, 30° C., 2 days
Method: as §1

[5] = tested on: Cryptococcus neoformans TIMM0354; format: cell-based; settings: for activity for Cryptococcus compared with Aureobasidin A: in words
Method: as §1

[6] = tested on: Aspergillus fumigatus TIMM2766; format: cell-based
Method: as §1

[7] = amide bond, 27-membered ring, PyBroP/DIEA, CH2Cl2
[8] = Cryptococcus neoformans TIMM0354, saburo-dextrose agarose culture, 30° C., 2 days
[9] = Aspergillus fumigatus TIMM2766, saburo-dextrose agarose culture, 30° C., 2 days

| SMILES | MIC [1] | MIC [2] | MIC [3] | MIC [4] | MIC [5, 8] | MIC ([5]; TIMM0354) | MIC [6, 9] | also measured |
| --- | --- | --- | --- | --- | --- | --- | --- | --- |
| CC[C@@H](C)[C@@H]1NC(=O)[C@@H]2CCCN2C(=O)[C@@H](C)N(C)C(=O)[C@H](CC2CCCCC2)NC(=O)[C@H](C(C)C)N(C)C(=O)[C@@H]([C@H](C)CC)OC(=O)[C@H](C(C)(C)O)N(C)C(=O)[C@H](CC(C)C)NC(=O)[C@H](C(C)C)N(C)C1=O [Compound 3, cyclo(L -aIle-L -MeVal-L -Leu-L -βHOMeVal-D -Hmp-L -MeVal-L -Cha-D -MeAla-L -Pro)] (cyclo([aIle][NMeV]L[NMeVal(β-OH)][X1][NMeV][Cha][dNMeA]P)) | 0.0125 µg/mL (≈ 0.0121 µM) | 0.025 µg/mL (≈ 0.0242 µM) | 0.10 µg/mL (≈ 0.097 µM) | 0.20 µg/mL (≈ 0.194 µM) | 0.10 µg/mL (≈ 0.097 µM) | 0.10 to 0.39 µg/mL | 3.12 µg/mL (≈ 3.03 µM) | activity for Cryptococcus compared with Aureobasidin A [5]: stronger activity than Aureobasidin A; MIC ([6]; TIMM2766): 1.56 to 25 µg/mL; ring closure, isolated yield ([7]; from H-aIle-MeVal-Leu-βHOMeVal-dHmp-MeVal-Cha-dMeAla-Pro-OH, 1.0 mM, 25.0 °C): 28.6% |
| CC[C@@H](C)[C@@H]1NC(=O)[C@@H]2CCCN2C(=O)[C@@H](COCc2ccccc2)N(C)C(=O)[C@H](CC2CCCCC2)NC(=O)[C@H](C(C)C)N(C)C(=O)[C@@H]([C@H](C)CC)OC(=O)[C@H](C(C)(C)O)N(C)C(=O)[C@H](CC(C)C)NC(=O)[C@H](C(C)C)N(C)C1=O | – | – | – | – | – | – | – | ring closure, isolated yield ([7]; from H-aIle-MeVal-Leu-βHOMeVal-dHmp-MeVal-Cha-dMeSer(Bzl)-Pro-OH, 1.0 mM): 34.3% |
| CC[C@@H](C)[C@@H]1NC(=O)[C@@H]2CCCN2C(=O)[C@@H](C(C)C)N(C)C(=O)[C@H](CC2CCCCC2)NC(=O)[C@H](C(C)C)N(C)C(=O)[C@@H]([C@H](C)CC)OC(=O)[C@H](C(C)(C)O)N(C)C(=O)[C@H](CC(C)C)NC(=O)[C@H](C(C)C)N(C)C1=O [Compound 8, cyclo(L -aIle-L -MeVal-L -Leu-L -βHOMeVal-D -Hmp-L -MeVal-L -Cha-D -MeVal-L -Pro)] (cyclo([aIle][NMeV]L[NMeVal(β-OH)][X1][NMeV][Cha][dNMeV]P)) | 0.10 µg/mL (≈ 0.0944 µM) | 0.05 µg/mL (≈ 0.0472 µM) | 0.78 µg/mL (≈ 0.736 µM) | 0.78 µg/mL (≈ 0.736 µM) | 0.39 µg/mL (≈ 0.368 µM) | 0.10 to 0.39 µg/mL | > 25 µg/mL | ring closure, isolated yield ([7]; from H-aIle-MeVal-Leu-βHOMeVal-dHmp-MeVal-Cha-dMeVal-Pro-OH, 1.0 mM): 20.5% |
| CC[C@@H](C)[C@@H]1NC(=O)[C@@H]2CCCN2C(=O)[C@@H](C)N(C)C(=O)[C@H](CC(C)C)NC(=O)[C@H](C(C)C)N(C)C(=O)[C@@H]([C@H](C)CC)OC(=O)[C@H](C(C)(C)O)N(C)C(=O)[C@H](CC(C)C)NC(=O)[C@H](C(C)C)N(C)C1=O [Compound 5, cyclo(L -aIle-L -MeVal-L -Leu-L -βHOMeVal-D -Hmp-L -MeVal-L -Leu-D -MeAla-L -Pro)] (cyclo(L[dNMeA]P[aIle][NMeV]L[NMeVal(β-OH)][X1][NMeV])) | – | – | – | – | – | 0.10 to 0.39 µg/mL | – | ring closure, isolated yield ([7]; from H-aIle-MeVal-Leu-βHOMeVal-dHmp-MeVal-Leu-dMeAla-Pro-OH, 1.0 mM, 25.0 °C): 39.4% |
| CC[C@@H](C)[C@@H]1NC(=O)[C@@H]2CCCN2C(=O)[C@@H](C)N(C)C(=O)[C@H](Cc2ccccc2)NC(=O)[C@H](C(C)C)N(C)C(=O)[C@@H]([C@H](C)CC)OC(=O)[C@H](C(C)(C)O)N(C)C(=O)[C@H](CC(C)C)NC(=O)[C@H](C(C)C)N(C)C1=O [Compound 1, cyclo(L -aIle-L -MeVal-L -Leu-L -βHOMeVal-D -Hmp-L -MeVal-L -Phe-D -MeAla-L -Pro)] (cyclo([aIle][NMeV]L[NMeVal(β-OH)][X1][NMeV]F[dNMeA]P)) | 0.05 µg/mL (≈ 0.0488 µM) | 0.05 µg/mL (≈ 0.0488 µM) | 0.20 µg/mL (≈ 0.195 µM) | 0.20 µg/mL (≈ 0.195 µM) | 3.12 µg/mL (≈ 3.04 µM) | – | – | ring closure, isolated yield ([7]; from H-aIle-MeVal-Leu-βHOMeVal-dHmp-MeVal-Phe-dMeAla-Pro-OH, 0.97 mM, 25.0 °C): 55.5% |
| CC[C@@H](C)[C@@H]1NC(=O)[C@@H]2CCCN2C(=O)[C@@H](C)N(C)C(=O)[C@H](Cc2ccc(F)cc2)NC(=O)[C@H](C(C)C)N(C)C(=O)[C@@H]([C@H](C)CC)OC(=O)[C@H](C(C)(C)O)N(C)C(=O)[C@H](CC(C)C)NC(=O)[C@H](C(C)C)N(C)C1=O | – | – | – | – | – | – | – | ring closure, isolated yield ([7]; from H-aIle-MeVal-Leu-βHOMeVal-dHmp-MeVal-pFPhe-dMeAla-Pro-OH, 1.0 mM, 25.0 °C): 29.8% |
| CC[C@@H](C)[C@@H]1NC(=O)[C@@H]2CCCN2C(=O)[C@@H](C(C)C)N(C)C(=O)[C@H](Cc2ccccc2)NC(=O)[C@H](C(C)C)N(C)C(=O)[C@@H]([C@H](C)CC)OC(=O)[C@H](C(C)(C)O)N(C)C(=O)[C@H](CC(C)C)NC(=O)[C@H](C(C)C)N(C)C1=O | – | – | – | – | – | – | – | ring closure, isolated yield ([7]; from H-aIle-MeVal-Leu-βHOMeVal-dHmp-MeVal-Phe-dMeVal-Pro-OH, 1.0 mM, 25.0 °C): 35% |
| CC[C@@H](C)[C@@H]1NC(=O)[C@@H]2CCCN2C(=O)[C@H](Cc2ccccc2)N(C)C(=O)[C@H](CC2CCCCC2)NC(=O)[C@H](C(C)C)N(C)C(=O)[C@@H]([C@H](C)CC)OC(=O)[C@H](C(C)(C)O)N(C)C(=O)[C@H](CC(C)C)NC(=O)[C@H](C(C)C)N(C)C1=O [Compound 6, cyclo(L -aIle-L -MeVal-L -Leu-L -βHOMeVal-D -Hmp-L -MeVal-L -Cha-L -MePhe-L -Pro)] (cyclo([aIle][NMeV]L[NMeVal(β-OH)][X1][NMeV][Cha][NMeF]P)) | 0.39 µg/mL (≈ 0.352 µM) | 0.20 µg/mL (≈ 0.181 µM) | 1.56 µg/mL (≈ 1.41 µM) | 1.56 µg/mL (≈ 1.41 µM) | 0.20 µg/mL (≈ 0.181 µM) | 0.10 to 0.39 µg/mL | > 25 µg/mL | ring closure, isolated yield ([7]; from H-aIle-MeVal-Leu-βHOMeVal-dHmp-MeVal-Cha-MePhe-Pro-OH?, 1.01 mM, 25.0 °C): 23.9% |
| CC[C@@H](C)[C@@H]1NC(=O)[C@@H]2CCCN2C(=O)[C@@H](C)N(C)C(=O)[C@H](COCc2ccccc2)NC(=O)[C@H](C(C)C)N(C)C(=O)[C@@H]([C@H](C)CC)OC(=O)[C@H](C(C)(C)O)N(C)C(=O)[C@H](CC(C)C)NC(=O)[C@H](C(C)C)N(C)C1=O [Compound 7, cyclo(L -aIle-L -MeVal-L -Leu-L -βHOMeVal-D -Hmp-L -MeVal-L -Ser(Bzl)-D -MeAla-L -Pro)] (cyclo(L[NMeVal(β-OH)][X1][NMeV]S(Bn)[dNMeA]P[aIle][NMeV])) | – | – | – | – | – | 0.10 to 0.39 µg/mL | – | ring closure, isolated yield ([7]; from H-aIle-MeVal-Leu-βHOMeVal-dHmp-MeVal-Ser(Bzl)-dMeAla-Pro-OH, 1.0 mM, 25.0 °C): 45.2% |
| CC[C@@H](C)[C@@H]1NC(=O)[C@@H]2CCCN2C(=O)[C@@H](CO)N(C)C(=O)[C@H](CC2CCCCC2)NC(=O)[C@H](C(C)C)N(C)C(=O)[C@@H]([C@H](C)CC)OC(=O)[C@H](C(C)(C)O)N(C)C(=O)[C@H](CC(C)C)NC(=O)[C@H](C(C)C)N(C)C1=O [Compound 9, cyclo(L -aIle-L -MeVal-L -Leu-L -βHOMeVal-D -Hmp-L -MeVal-L -Cha-D -MeSer-L -Pro)] (cyclo([aIle][NMeV]L[NMeVal(β-OH)][X1][NMeV][Cha][dNMeS]P)) | 0.20 µg/mL (≈ 0.191 µM) | 0.20 µg/mL (≈ 0.191 µM) | 0.78 µg/mL (≈ 0.745 µM) | 0.78 µg/mL (≈ 0.745 µM) | 0.20 µg/mL (≈ 0.191 µM) | 0.10 to 0.39 µg/mL | > 25 µg/mL | – |
| CC[C@@H](C)[C@@H]1NC(=O)[C@@H]2CCCN2C(=O)[C@@H](C)N(C)C(=O)[C@H](Cc2ccc(OCC3CCCCC3)cc2)NC(=O)[C@H](C(C)C)N(C)C(=O)[C@@H]([C@H](C)CC)OC(=O)[C@H](C(C)(C)O)N(C)C(=O)[C@H](CC(C)C)NC(=O)[C@H](C(C)C)N(C)C1=O [Compound 12, cyclo(L -aIle-L -MeVal-L -Leu-L -βHOMeVal-D -Hmp-L -MeVal-L -Tyr(c-C6 H11 --CH2 --)-D -MeAla-L -Pro)] (cyclo([aIle][NMeV]L[NMeVal(β-OH)][X1][NMeV]Y(Cyclohexylmethyl)[dNMeA]P)) | 0.10 µg/mL (≈ 0.0879 µM) | 0.39 µg/mL (≈ 0.343 µM) | 0.39 µg/mL (≈ 0.343 µM) | 1.56 µg/mL (≈ 1.37 µM) | 0.20 µg/mL (≈ 0.176 µM) | 0.10 to 0.39 µg/mL | 1.56 µg/mL (≈ 1.37 µM) | activity for Cryptococcus compared with Aureobasidin A [5]: stronger activity than Aureobasidin A; MIC ([6]; TIMM2766): 1.56 to 25 µg/mL; ring closure, isolated yield ([7]; from H-aIle-MeVal-Leu-βHOMeVal-dHmp-MeVal-Tyr(c-C6H11-CH2)-dMeAla-Pro-OH, 1.0 mM): 52.3% |
| CC[C@@H](C)[C@@H]1NC(=O)[C@@H]2CCCN2C(=O)[C@@H](C)N(C)C(=O)[C@H](Cc2ccc(OCc3ccccc3)cc2)NC(=O)[C@H](C(C)C)N(C)C(=O)[C@@H]([C@H](C)CC)OC(=O)[C@H](C(C)(C)O)N(C)C(=O)[C@H](CC(C)C)NC(=O)[C@H](C(C)C)N(C)C1=O | – | – | – | – | – | – | – | ring closure, isolated yield ([7]; from H-aIle-MeVal-Leu-βHOMeVal-dHmp-MeVal-Tyr(Bzl)-dMeAla-Pro-OH, 1.0 mM): 41.5% |
